Assays:
[1] = tested on: tyrosine phosphatase activity / phosphotyrosine content in U2-OS cells; test: Cellular phosphotyrosine content in fixed U2-OS cells grown on carbon electrode, ECL detection (tyrosine phosphatase inhibition); type: cell-based; conditions: 1 mM, 30 minute incubation
Experimental: U2-OS cells were grown in non-plasma treated Multi-Array plates using the growth conditions recommended by the American Type Culture Collection (ATCC reference number HTB-96). The plates were partially sterilized beforehand by illumination with a high energy UV light (Strata Linker Model 2400, Stratagene) set to deliver 9999 joules to the plate surface over the course of 5 minutes. Approximately 10,000 trypsinized cells were dispensed to each well of the 96 well plate in 100 μl of tissue culture media (see ATCC reference above) and incubated overnight in a cell culture incubator (at 37° C. in a humidified atmosphere containing 5% CO2) to promote attachment of the cells to the electrode surface.
Per-Vanadate, a tyrosine phosphatase inhibitor was added to a some of the wells to give a final concentration of 1 mM in those wells. […]
Phosphotyrosine containing proteins were detected by incubating the wells for one hour in 90 μl of PBS/FBS containing an anti-phosphotyrosine monoclonal antibody (100 ng/mL) and an anti-mouse secondary antibody (200 ng/mL) that was labeled with ruthenium-tris-bipyridine (ORI-TAG NHS Ester, IGEN International). […] ECL Assay Buffer was added (150 μl of OriGlo Plus, IGEN International) and the plate was analyzed using a Sector HTS instrument.

[2] = tested on: EGFR in A431 cells; test: Measuring of EGFR activation dependent phosphorylation (prophetic); type: cell-based; conditions: membrane fragments of EGF-activated A431 cells
Text: Activation of EGFR leads to its autophosphorylation. The cells are lysed as described in Example 1.2 to form cell membrane fragments (and, preferably, purified by centrifugation). The cell membrane fragments are immobilized on carbon electrodes integrated into the multi-well plates by passive adsorption or specific binding to a capture reagent previously immobilized on the electrode (e.g., wheat germ agglutinin, anti-EGFR, or another antibody specific for a membrane component, preferably, an epitope found on the cytoplasmic side) (as described in Example 1.3). The immobilized membrane fragments are treated with a buffered solution containing a STAG-labeled anti-phosphotyrosine antibody. In an alternate protocol, the membranes and antibody are premixed prior to addition of the membranes to the wells. A buffered tripropylamine solution is introduced to the well and ECL is induced and measured as described in Example 1.4.

[3] = tested on: EGFR in A431 cells; test: Measurement of EGFR activation dependent binding events (prophetic); type: cell-based; conditions: membrane fragments of EGF-activated A431 cells
Text: Activation of the EGFR leads to autophosphorylation of EGFR followed by the sequential binding of shc to EGFR and grb-2 to shc. The cells are lysed as described in Example 1.2 to form cell membrane fragments (and, preferably, purified by centrifugation). The cell membrane fragments are immobilized on carbon electrodes integrated into the multi-well plates by passive adsorption (as described in Example 1.3) or specific binding to a capture reagent immobilized on the electrode (e.g., wheat germ agglutinin, anti-EGFR, or another antibody specific for a membrane component, preferably, an epitope found on the cytoplasmic side). The immobilized membrane fragments are treated with a buffered solution containing an STAG-labeled antibody directed against shc or grb-1. In an alternate protocol, the membranes and antibody are premixed prior to addition of the membranes to the wells. A buffered tripropylamine solution is introduced into the well and ECL is induced and measured as described in Example 1.4.

[4] = biological target: melanocortin 5 receptor (MC5) (Homo sapiens, UniProt P33032); conditions: at the higher concentrations
Sequence of melanocortin 5 receptor (MC5) (P33032 whole entry): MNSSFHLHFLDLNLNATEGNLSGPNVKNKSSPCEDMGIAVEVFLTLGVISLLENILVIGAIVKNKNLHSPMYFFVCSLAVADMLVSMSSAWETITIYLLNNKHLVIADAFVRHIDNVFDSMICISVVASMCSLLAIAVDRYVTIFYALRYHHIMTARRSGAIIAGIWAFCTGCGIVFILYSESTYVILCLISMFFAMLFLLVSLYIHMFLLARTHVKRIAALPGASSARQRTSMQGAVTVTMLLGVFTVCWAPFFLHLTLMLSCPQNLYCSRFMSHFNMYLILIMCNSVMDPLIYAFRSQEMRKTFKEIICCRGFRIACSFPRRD
Experimental: The membrane fragments came from HEK-293 cells that were transformed to express MC5.
Pure PHA-E was passively adsorbed onto the working electrode of plasma-treated Multi-Array 384-well plates by dispensing PHA-E (10 pmol per well) in PBS (5 μL per well) into the wells of the plate. Plates were sealed and incubated for 1 h at ambient temperature. Following the incubation, 3% BSA blocking solution was added (65 μL per well) and the plates were sealed and incubated for 1 h at room temperature. Plates were washed 4 times with PBS and dried. MC5 containing membrane fragments were immobilized in the plates using the procedure described in Example 2.3.1 except that in this case the immobilization occurred via lectin-sugar interactions.
In this Example, MC5 containing membrane fragments were immobilized on the electrode surface of plasma treated Multi-Array 96 well plates (Meso Scale Discovery) by capture on a passively adsorbed layer of pure Pokeweed Mitogen according to an immobilization protocol analogous to that described in the Example 2.3.2. […] The fluid in the wells was then removed and 150 μL of a buffered detergent-free solution of tripropylamine (MSD Assay Buffer T, surfactant free, Meso Scale Discovery) was added. ECL from the wells was measured using a Sector HTS plate reader.

Per-vanadate
ECL signal after subtraction of background, relative to untreated cells [1]: more than three times higher
Average ECL signal (anti-phosphotyrosine antibody) ([1]; n=4): 7690.0

EGF: epidermal growth factor, ligand of EGFR (NSDSECPLSHDGYCLHDGVCMYIEALDKYACNCVVGYIGERCQYRDLKWWELR; not fully specified; Epidermal growth factor; UniProt P01133 971-1023, looked up)
ECL signal (STAG-labeled anti-phosphotyrosine antibody) versus control A431 cells not exposed to EGF [2]: greater
ECL signal (STAG-labeled antibody against shc or grb-1) versus control A431 cells not exposed to EGF [3]: greater

[Nle4,D-Phe7]-α-melanocyte-stimulating hormone [NDP-α-MSH]
inhibition of the binding of NDP-α-MSH-TAG to MC5 [4]: almost complete
